Values of other authors in patent US4303671A, “Albumin stabilized prostacyclin” (priority 1980, dated 1981).

Legend:
[1] = test system: blood platelet aggregation; conditions: at the time of its discovery
[2] = under acid conditions, including at physiological pH's
[3] = kept in whole blood or plasma; The Lancet, July 29, 1978
[4] = human plasma and human serum albumin; FASEB Meeting abstract, 1980
[5] = FEBS Letters 82:321-324 (1977)

Row | Structure (SMILES) | potency to inhibit blood platelet aggregation (in words) [1] | chemical stability (in words) [2] | protection against degradation (in words) [3] | stabilization by albumin (in words) [4] | stabilization of thromboxane A2 by albumin (in words) [5]
1 | CCCCC[C@H](O)/C=C/[C@@H]1[C@H]2C/C(=C/CCCC(=O)O)O[C@H]2C[C@H]1O [prostacyclin, 9-deoxy-6,9α-epoxy-(5Z)-5,6-didehydro-PGF1] | most potent prostaglandin-related substance effective to inhibit blood platelet aggregation | spontaneously decomposes to 6-oxo-PGF1α | probably protected against degradation when kept in whole blood or plasma | albumin stabilizes prostacyclin | –
2 | CCCCC[C@H](O)/C=C/[C@H]1O[C@H]2C[C@H](O2)[C@@H]1C/C=C\CCCC(=O)O [thromboxane A2] | – | – | – | – | ability to stabilize thromboxane A2
